Data taken from ChEMBL document CHEMBL1158992, “Application of two-dimensional nmr spectroscopy in the structural determination of marine natural products. Isolation and total structural assignment of 4-deoxyasbestinin diterpenes from the Caribbean gorgonian Briareum asbestinum” (J Nat Prod, 1991).
Converted amounts (≈) assume the structure as drawn. The source made the active and inactive calls. The calls are words filed in the database; no cut-off is given here.

Key:
Klebsiella pneumoniae = experiment: Antimicrobial activity against Klebsiella pneumoniae; format: functional, organism-based
[1] = Cytotoxicity against CHOK1 cells; format: cell-based, Cricetulus griseus; conditions: chinese hamster, CHO-K1 cells; read-out: ED50 (the source's name)
[2] = tested on: Human immunodeficiency virus; experiment: Antiviral activity against HIV; format: functional, organism-based

Compound | Activity (Klebsiella pneumoniae) | CC50 [1] [µg/mL] | Activity [2]
CC(=O)O[C@H]1[C@@H]2[C@@H]3[C@@H](C[C@H]1C)[C@@H](C)CO[C@@]1(C)CC/C=C(/C)C[C@@H]2O[C@@H]31 | Active | 4.82 (≈ 13.3 µM) | 
CCCC(=O)O[C@H]1[C@@H]2[C@@H]3[C@@H](C[C@H]1C)[C@@H](C)CO[C@@]1(C)CC/C=C(\C)C[C@@H]2O[C@@H]31 [4-DEOXYASBESTININ A] | Active | 3.35 (≈ 8.58 µM) | 
CCCC(=O)O[C@H]1[C@@H]2[C@@H]3[C@@H](C[C@H]1C)[C@@H](C)CO[C@@]1(C)CC/C=C(/C)C[C@@H]2O[C@@H]31 | Active | 3.55 (≈ 9.09 µM) | 
CC(=O)O[C@H]1[C@@H]2[C@@H]3[C@@H](C[C@H]1C)[C@@H](C)CO[C@@]1(C)CC/C=C(\C)C[C@@H]2O[C@@H]31 [11-ACETOXY-4-DEOXYASBESTININ B] | Active | 2.5 (≈ 6.9 µM) | inactive
